From US8940756B2, “Dihydronaphthyridines and related compounds useful as kinase inhibitors for the treatment of proliferative diseases” (Deciphera Pharmaceuticals, Inc., priority 2012, dated 2015)

Legend:
[1] = biological target: T1, c-KIT T670I kinase (Seq ID no. 6) (Homo sapiens, UniProt P10721, T670I); test: c-KIT T670I Kinase Assay; type: biochemical; conditions: enzymatic assay, ATP 200 uM
T1 construct: GST (N); TEV cleavage site (N); purchased deCODE Biostructures
Procedure: (§1) In this assay, the oxidation of NADH (measured by decrease in absorbance at 340 nm) was continuously monitored spectrophotometrically. […] The inhibition reaction was started by mixing serial diluted test compound with the above reaction mixture. The absorption at 340 nm was monitored continuously for 5 hours at 30° C. on Synergy 2 plate reader (BioTech). […] The protein construct was prepared by deCODE Biostructures using procedures known in the art. The construct contains […] of cKit, an N-terminal tag, a GST-fusion sequence and a TEV cleavage site. This construct is identical to Seq ID no.

[2] = biological target: T2, c-KIT D816V kinase (Seq ID no. 4) (Homo sapiens, UniProt P10721, D816V); test: c-KIT D816V kinase Assay; type: biochemical; conditions: enzymatic assay, ATP 200 uM
T2 construct: D816V c-KIT (residues T544-V976 with N-terminal GST fusion, 16 nM); purchased deCODE Biostructures
T2 sequence (P10721 544-976 D816V): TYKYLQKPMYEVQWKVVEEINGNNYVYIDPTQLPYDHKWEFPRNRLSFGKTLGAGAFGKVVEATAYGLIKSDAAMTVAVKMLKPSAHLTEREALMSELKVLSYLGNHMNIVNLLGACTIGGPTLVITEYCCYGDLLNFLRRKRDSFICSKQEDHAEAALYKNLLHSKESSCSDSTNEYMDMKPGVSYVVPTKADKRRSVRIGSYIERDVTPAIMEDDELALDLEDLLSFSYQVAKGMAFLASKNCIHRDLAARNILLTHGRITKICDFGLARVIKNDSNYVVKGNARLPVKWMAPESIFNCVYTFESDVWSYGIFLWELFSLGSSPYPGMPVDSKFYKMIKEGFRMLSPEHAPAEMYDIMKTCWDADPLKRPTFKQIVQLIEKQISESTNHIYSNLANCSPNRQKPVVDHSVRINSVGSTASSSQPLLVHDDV
Procedure: In this assay, the oxidation of NADH (measured by decrease in absorbance at 340 nm) was continuously monitored spectrophotometrically. […] The inhibition reaction was started by mixing serial diluted test compound with the above reaction mixture. The absorption at 340 nm was monitored continuously for 5 hours at 30° C. on Synergy 2 plate reader (BioTech).
The protein construct was prepared by deCODE Biostructures using procedures known in the art. The construct contains residues T544-V976 of cKit, an N-terminal tag, a GST-fusion sequence and a TEV cleavage site. This construct is identical to Seq ID no. 1 except for the D816V mutation.

[3] = biological target: T3, c-KIT kinase (Seq ID no. 1) (Homo sapiens, UniProt P10721); test: c-KIT Kinase Assay (pyruvate kinase/lactate dehydrogenase coupled); type: biochemical; conditions: enzymatic assay, ATP 200 μM; read-out: KIT (wt)
T3 construct: GST (N); TEV cleavage site (N); purchased deCODE Biostructures
T3 sequence (P10721 with tags, fused parts or gaps): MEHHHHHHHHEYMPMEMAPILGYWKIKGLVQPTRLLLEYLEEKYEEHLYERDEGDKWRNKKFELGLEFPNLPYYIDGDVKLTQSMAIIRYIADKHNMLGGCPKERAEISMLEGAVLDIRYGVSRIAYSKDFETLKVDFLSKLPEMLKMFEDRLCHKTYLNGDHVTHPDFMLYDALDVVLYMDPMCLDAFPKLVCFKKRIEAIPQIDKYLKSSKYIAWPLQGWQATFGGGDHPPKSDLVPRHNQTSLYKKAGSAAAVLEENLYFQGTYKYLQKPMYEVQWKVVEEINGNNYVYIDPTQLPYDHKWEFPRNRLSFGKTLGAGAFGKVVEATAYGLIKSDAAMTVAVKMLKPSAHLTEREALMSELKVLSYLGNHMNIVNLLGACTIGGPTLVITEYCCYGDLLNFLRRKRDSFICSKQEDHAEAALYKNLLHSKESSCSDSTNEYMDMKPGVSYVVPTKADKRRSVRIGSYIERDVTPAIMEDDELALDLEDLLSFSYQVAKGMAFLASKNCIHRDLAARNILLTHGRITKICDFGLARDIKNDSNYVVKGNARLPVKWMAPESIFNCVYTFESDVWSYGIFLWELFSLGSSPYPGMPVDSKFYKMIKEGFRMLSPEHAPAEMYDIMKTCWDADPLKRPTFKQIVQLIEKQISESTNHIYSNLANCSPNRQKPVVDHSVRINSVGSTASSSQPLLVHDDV
Procedure: In this assay, the oxidation of NADH (measured by decrease in absorbance at 340 nm) was continuously monitored spectrophotometrically. […] The absorption at 340 nm was monitored continuously for 2 hours at 30° C. on Synergy 2 (BioTeK). The reaction rate was calculated using the 0 to 1 h time frame. Percent inhibition was obtained by comparison of reaction rate with that of a control (i.e. with no test compound). IC50 values were calculated from a series of percent inhibition values determined at a range of inhibitor concentrations using software routines as implemented in the GraphPad Prism software package. The protein construct was prepared by deCODE Biostructures using procedures known in the art. The construct contains […] of cKit, an N-terminal tag, a GST-fusion sequence and a TEV cleavage site.

[4] = biological target: T4, c-KIT D816H kinase (Seq ID no. 3) (Homo sapiens, UniProt P10721, D816H); test: c-KIT D816H Kinase Assay; type: biochemical; conditions: enzymatic assay, ATP 200 μM
T4 construct: GST (N); TEV cleavage site (N); purchased deCODE Biostructures
T4 sequence (P10721 544-976 D816H): as the sequence (P10721 544-976 D816V) above, with V273H counted along it
Procedure: as §1, with “6” for “5”, “no. 1 except for the D816H mutation.” for “no.”

[5] = biological target: Phospho-KIT (Tyr719) in GIST48 cells (Homo sapiens, UniProt P10721); test: GIST48 KIT Western Blot; type: cell-based; conditions: 4 hours, read-out: pKIT suppression by western blot analysi GIST48
Chain of Phospho-KIT (Tyr719) in GIST48 cells (P10721 whole entry V560D/D820A, form open): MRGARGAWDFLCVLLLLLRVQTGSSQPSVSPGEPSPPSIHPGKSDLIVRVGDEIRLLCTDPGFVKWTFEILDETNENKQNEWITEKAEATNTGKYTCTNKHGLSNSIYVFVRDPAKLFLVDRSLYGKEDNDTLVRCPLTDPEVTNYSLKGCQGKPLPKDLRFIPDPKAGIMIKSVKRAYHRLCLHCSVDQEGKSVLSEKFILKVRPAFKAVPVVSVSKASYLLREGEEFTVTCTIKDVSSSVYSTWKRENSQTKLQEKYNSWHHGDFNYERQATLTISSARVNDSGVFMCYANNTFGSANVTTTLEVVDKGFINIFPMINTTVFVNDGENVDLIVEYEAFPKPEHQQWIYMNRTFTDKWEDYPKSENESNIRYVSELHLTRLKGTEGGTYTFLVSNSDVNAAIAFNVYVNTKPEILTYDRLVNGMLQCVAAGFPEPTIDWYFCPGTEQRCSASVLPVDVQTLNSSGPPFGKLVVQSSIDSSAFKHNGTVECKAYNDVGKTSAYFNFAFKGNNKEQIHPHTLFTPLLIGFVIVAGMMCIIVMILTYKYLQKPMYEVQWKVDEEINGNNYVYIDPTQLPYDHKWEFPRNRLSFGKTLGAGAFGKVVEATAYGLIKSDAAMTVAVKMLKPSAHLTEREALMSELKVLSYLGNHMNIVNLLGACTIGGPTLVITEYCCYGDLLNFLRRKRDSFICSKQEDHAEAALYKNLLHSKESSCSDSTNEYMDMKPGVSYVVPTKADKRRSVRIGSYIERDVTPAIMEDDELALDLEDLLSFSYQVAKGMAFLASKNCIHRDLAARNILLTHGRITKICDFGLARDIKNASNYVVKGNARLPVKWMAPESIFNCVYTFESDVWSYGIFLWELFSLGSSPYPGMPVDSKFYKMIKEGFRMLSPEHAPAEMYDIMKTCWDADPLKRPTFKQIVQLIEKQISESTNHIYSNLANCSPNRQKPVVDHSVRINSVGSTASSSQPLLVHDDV
Procedure: (§2) GIST48, GIST430, and GIST882 cells were obtained from J. Fletcher (Brigham and Women's Hospital, Boston, Mass.). GIST T1 cells were obtained from B. Rubin (Cleveland Clinic, Cleveland, Ohio) and Professor Takahiro Taguchi (Kochi Medical School, Nankoku, Kochi, Japan). […] GIST430 cells were grown in Ham's F10 medium supplemented with 15% characterized fetal bovine serum (Invitrogen, Carlsbad, Calif.), 30 mg/L bovine pituitary extract (BD Biosciences, San Jose, Calif.), 0.5% Mito+ serum extender (BD Biosciences, San Jose, Calif.), 1 unit/mL penicillin G, 1 μg/ml streptomycin, and 0.29 mg/mL L-glutamine at 37° C., 5% CO2, 95% humidity. GIST T1 cells were grown in DMEM medium supplemented with 10% characterized fetal bovine serum (Invitrogen, Carlsbad, Calif.), 1 unit/mL penicillin G, 1 ng/ml streptomycin, and 0.29 mg/mL L-glutamine at 37° C., 5% CO2, and 95% humidity. Cells were allowed to expand until reaching 70-95% confluence at which point they were subcultured or harvested for assay use.
(§3) Two hundred fifty thousand cells were added per well in a 24-well tissue-culture treated plate. Cells were then incubated overnight at 37° C., 5% CO2, 95% humidity. Medium was aspirated, cells were washed with PBS, and serum-free RPMI1640 medium was added. A serial dilution of test compound was added to plates containing cells and plates were incubated for 4 hours at 37° C., 5% CO2, 95% humidity. Cells were washed with PBS, then lysed. Cell lysates were separated by SDS-PAGE and transferred to PVDF. Phospho-KIT (Tyr719) was detected using an antibody from Cell Signaling Technology (Beverly, Mass.), ECL Plus detection reagent (GE Healthcare, Piscataway, N.J.) and a Molecular Devices Storm 840 phosphorimager in fluorescence mode. Blots were stripped and probed for total KIT using an antibody from Santa Cruz Biotech (Santa Cruz, Calif.). IC50 values were calculated using Prism software (Graphpad, San Diego, Calif.).

[6] = biological target: Phospho-KIT (Tyr719) in GIST430 cells (Homo sapiens, UniProt P10721); test: GIST430 KIT Western Blot; type: cell-based; conditions: 4 hours, read-out: pKIT suppression by western blot analysi GIST430
Chain of Phospho-KIT (Tyr719) in GIST430 cells (P10721 with tags, fused parts or gaps DEL560-576/V654A, form open): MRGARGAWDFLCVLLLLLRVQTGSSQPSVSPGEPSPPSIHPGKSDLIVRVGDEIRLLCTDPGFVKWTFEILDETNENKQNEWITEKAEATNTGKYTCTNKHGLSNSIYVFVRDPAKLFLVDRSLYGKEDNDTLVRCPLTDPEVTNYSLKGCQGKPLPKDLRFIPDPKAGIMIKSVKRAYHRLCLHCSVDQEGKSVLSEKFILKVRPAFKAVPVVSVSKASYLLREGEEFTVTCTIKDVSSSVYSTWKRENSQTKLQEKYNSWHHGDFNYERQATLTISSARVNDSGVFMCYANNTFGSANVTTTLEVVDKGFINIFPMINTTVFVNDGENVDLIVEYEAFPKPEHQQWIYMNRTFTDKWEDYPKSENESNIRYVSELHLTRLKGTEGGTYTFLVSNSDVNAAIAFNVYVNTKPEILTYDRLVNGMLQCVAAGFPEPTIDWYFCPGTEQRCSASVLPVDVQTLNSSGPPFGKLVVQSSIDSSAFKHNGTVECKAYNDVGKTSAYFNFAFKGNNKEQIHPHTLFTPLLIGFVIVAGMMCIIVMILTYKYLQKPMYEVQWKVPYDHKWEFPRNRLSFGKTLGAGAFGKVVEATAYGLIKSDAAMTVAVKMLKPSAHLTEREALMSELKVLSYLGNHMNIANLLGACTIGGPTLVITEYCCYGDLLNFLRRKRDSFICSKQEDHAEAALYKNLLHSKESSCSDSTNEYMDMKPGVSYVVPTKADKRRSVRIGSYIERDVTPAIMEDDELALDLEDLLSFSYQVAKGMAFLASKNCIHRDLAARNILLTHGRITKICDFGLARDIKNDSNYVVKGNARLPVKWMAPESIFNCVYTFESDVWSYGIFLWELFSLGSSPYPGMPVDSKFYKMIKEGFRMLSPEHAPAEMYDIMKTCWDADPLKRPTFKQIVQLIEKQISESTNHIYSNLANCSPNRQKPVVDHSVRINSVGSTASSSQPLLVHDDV
Procedure: as §2
as §3, with “One” for “Two”, “Ham's F10” for “RPMI1640”

T1 sequence (P10721 544-976 T670I): as the sequence (P10721 544-976 D816V) above, with T127I, V273D counted along it

Row | SMILES | IC50 [1] [nM] | IC50 [2] [nM] | IC50 [3] [nM] | IC50 [4] [nM] | IC50 [5] [nM] | IC50 [6] [nM]
1 | CCn1c(=O)c(-c2cc(NC(=O)Nc3ccccc3)c(F)cc2Cl)cc2cnc(NC3CCOCC3)cc21 [Example 42, 1-(4-chloro-5-(1-ethyl-2-oxo-7-(tetrahydro-2H-pyran-4-ylamino)-1,2-dihydro-1,6-naphthyridin-3-yl)-2-fluorophenyl)-3-phenylurea] | 100 to 1000 | 10 to 100 | 10 to 100 |  |  | 
2 | CCn1c(=O)c(-c2cc(NC(=O)Nc3ccccc3)c(F)cc2Cl)cc2cnc(NC3CCN(C)CC3)cc21 [Example 46, 1-(4-chloro-5-(1-ethyl-7-(1-methylpiperidin-4-ylamino)-2-oxo-1,2-dihydro-1,6-naphthyridin-3-yl)-2-fluorophenyl)-3-phenylurea] | > 1000 | 100 to 1000 | 10 to 100 |  |  | 
3 | CCn1c(=O)c(-c2cc(NC(=O)Nc3ccccc3)c(F)cc2Cl)cc2cnc(NC3CCOC3)cc21 (stereo not drawn) [Example 47, 1-(4-chloro-5-(1-ethyl-2-oxo-7-(THF-3-ylamino)-1,2-dihydro-1,6-naphthyridin-3-yl)-2-fluorophenyl)-3-phenylurea] | > 1000 | 10 to 100 | < 10 |  |  | 
4 | CCn1c(=O)c(-c2cc(NC(=O)Nc3ccccc3)c(F)cc2Cl)cc2cnc(NCCS(C)(=O)=O)cc21 [Example 48, 1-(4-chloro-5-(1-ethyl-7-(2-(methylsulfonyl)ethylamino)-2-oxo-1,2-dihydro-1,6-naphthyridin-3-yl)-2-fluorophenyl)-3-phenylurea] | > 1000 | 100 to 1000 | 10 to 100 |  |  | 
5 | CCn1c(=O)c(-c2cc(NC(=O)Nc3ccccc3)c(F)cc2Cl)cc2cnc(NC3CCN(C)C3)cc21 (stereo not drawn) [Example 49, 1-(4-chloro-5-(1-ethyl-7-(1-methylpyrrolidin-3-ylamino)-2-oxo-1,2-dihydro-1,6-naphthyridin-3-yl)-2-fluorophenyl)-3-phenylurea] | 100 to 1000 | 100 to 1000 | 10 to 100 |  |  | 
6 | CCn1c(=O)c(-c2cc(NC(=O)Nc3ccccc3)c(F)cc2Br)cc2cnc(NCCS(C)(=O)=O)cc21 [Example 52, 1-(4-bromo-5-(1-ethyl-7-(2-(methylsulfonyl)ethylamino)-2-oxo-1,2-dihydro-1,6-naphthyridin-3-yl)-2-fluorophenyl)-3-phenylurea] |  |  | < 10 | 100 to 1000 |  | 
7 | CCn1c(=O)c(-c2cc(NC(=O)Nc3ccccc3)c(F)cc2F)cc2cnc(NC(C)=O)cc21 [Example 66, 1-(5-(7-acetamido-1-ethyl-2-oxo-1,2-dihydro-1,6-naphthyridin-3-yl)-2,4-difluorophenyl)-3-phenylurea] | 10 to 100 | 10 to 100 | < 10 |  | 100 to 1000 | 10 to 100
8 | CCn1c(=O)c(-c2cc(NC(=O)Nc3ccccc3)c(F)cc2F)cc2cnc(NC(=O)CC#N)cc21 [Example 75, 2-cyano-N-(3-(2,4-difluoro-5-(3-phenylureido)phenyl)-1-ethyl-2-oxo-1,2-dihydro-1,6-naphthyridin-7-yl)acetamide] | 10 to 100 | 100 to 1000 | < 10 | 100 to 1000 |  | 
9 | CCn1c(=O)c(-c2cc(NC(=O)Nc3ccccc3)c(F)cc2C#N)cc2cnc(NC)cc21 [Example 76, 1-(4-cyano-5-(1-ethyl-7-(methylamino)-2-oxo-1,2-dihydro-1,6-naphthyridin-3-yl)-2-fluorophenyl)-3-phenylurea] | 100 to 1000 | 10 to 100 | < 10 |  |  | 
10 | CCn1c(=O)c(-c2cc(NC(=O)Nc3ccccc3)c(F)cc2Cl)cc2cnc(NC(=O)[C@@H]3CCCN3)cc21 [Example 85, (S)—N-(3-(2-chloro-4-fluoro-5-(3-phenylureido)phenyl)-1-ethyl-2-oxo-1,2-dihydro-1,6-naphthyridin-7-yl)pyrrolidine-2-carboxamide] | 100 to 1000 | 10 to 100 | 10 to 100 |  |  | 
11 | CCn1c(=O)c(-c2cc(NC(=O)Nc3ccc(F)c(CN(C)C)c3)c(F)cc2Cl)cc2cnc(NC)cc21 [Example 94, 1-(4-chloro-5-(1-ethyl-7-(methylamino)-2-oxo-1,2-dihydro-1,6-naphthyridin-3-yl)-2-fluorophenyl)-3-(3-((dimethylamino)methyl)-4-fluorophenyl)urea] | 10 to 100 | > 1000 | < 10 |  |  | 
12 | CCn1c(=O)c(-c2cc(NC(=O)Nc3ccc(F)c(CN4CCCC4)c3)c(F)cc2Cl)cc2cnc(NC)cc21 [Example 97, 1-(4-chloro-5-(1-ethyl-7-(methylamino)-2-oxo-1,2-dihydro-1,6-naphthyridin-3-yl)-2-fluorophenyl)-3-(4-fluoro-3-(pyrrolidin-1-ylmethyl)phenyl)urea] | 10 to 100 | > 1000 | < 10 | 10 to 100 |  | 
13 | CCn1c(=O)c(-c2cc(NC(=O)Nc3ccc(F)c(CN4CCOCC4)c3)c(F)cc2Cl)cc2cnc(NC=O)cc21 [Example 107, N-(3-(2-chloro-4-fluoro-5-(3-(4-fluoro-3-(morpholinomethyl)phenyl)ureido)phenyl)-1-ethyl-2-oxo-1,2-dihydro-1,6-naphthyridin-7-yl)formamide] | 10 to 100 | > 1000 | 10 to 100 |  |  | 
14 | CCn1c(=O)c(-c2cc(NC(=O)Nc3ccccc3)c(F)cc2C)cc2cnc(Nc3ccc(C)nc3)cc21 [Example 111, 1-(5-(1-ethyl-7-((6-methylpyridin-3-yl)amino)-2-oxo-1,2-dihydro-1,6-naphthyridin-3-yl)-2-fluoro-4-methylphenyl)-3-phenylurea] | 100 to 1000 | 10 to 100 | 10 to 100 |  |  | 
